Experimental data reported in patent US9169254B2, “Spiroimidazolone derivative” (Chugai Seiyaku Kabushiki Kaisha, priority 2009, dated 2015).

Biological target: T1, human PTH1 receptor (Homo sapiens, UniProt Q03431)
T1 sequence (Q03431 27-593): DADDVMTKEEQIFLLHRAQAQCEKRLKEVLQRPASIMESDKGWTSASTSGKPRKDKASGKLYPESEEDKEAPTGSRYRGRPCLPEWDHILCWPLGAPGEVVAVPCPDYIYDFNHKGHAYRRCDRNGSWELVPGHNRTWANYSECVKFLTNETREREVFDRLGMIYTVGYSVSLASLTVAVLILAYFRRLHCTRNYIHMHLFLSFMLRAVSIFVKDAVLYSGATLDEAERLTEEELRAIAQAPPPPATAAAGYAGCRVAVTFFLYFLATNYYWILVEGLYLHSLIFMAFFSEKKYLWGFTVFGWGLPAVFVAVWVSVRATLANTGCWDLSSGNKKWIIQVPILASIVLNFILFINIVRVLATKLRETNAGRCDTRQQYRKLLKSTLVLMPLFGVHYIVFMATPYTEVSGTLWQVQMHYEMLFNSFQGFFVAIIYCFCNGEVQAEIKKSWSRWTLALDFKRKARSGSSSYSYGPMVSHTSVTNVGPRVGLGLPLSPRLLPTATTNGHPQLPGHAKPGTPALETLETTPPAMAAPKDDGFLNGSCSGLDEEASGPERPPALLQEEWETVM
Experiment: In vitro cAMP signal activity in HKRK-B7 cells (LLC-PK1 cells overexpressing the human PTH1 receptor)
Assay type: cell-based
Conditions: HKRK-B7 cells, compound at 1×10^−3 M

[1] = cAMP produced as percentage of that produced by hPTH(1-34) at 100 nM

SMILES: Cc1cc(N2C(=O)CN(C)C2=O)ccc1CCS(=O)(=O)N1CCC2(CC1)N=C(C1CCC(C)CC1)NC2=O (centres unmarked) [Compound 862, 1-methyl-3-(3-methyl-4-{2-[2-(4-methyl-cyclohexyl)-4-oxo-1,3,8-triaza-spiro[4.5]dec-1-ene-8-sulfonyl]-ethyl}-phenyl)-imidazolidine-2,4-dione]
- cAMP production activity (%) [1]: 55%

SMILES: O=C1NC(C2CCCCC2)=NC12CCN(S(=O)(=O)CCc1ccccc1C(F)(F)F)CC2 [Compound 323, 2-Cyclohexyl-8-[2-(2-trifluoromethyl-phenyl)-ethanesulfonyl]-1,3,8-triaza-spiro[4.5]dec-1-en-4-one]
- cAMP production activity (%) [1]: 53%

SMILES: Cc1onc(-c2ccccc2)c1S(=O)(=O)N1CCC2(CC1)N=C(C1CCCCC1)NC2=O [Compound 52, 2-cyclohexyl-8-(5-methyl-3-phenyl-isoxazole-4-sulfonyl)-1,3,8-triaza-spiro[4.5]dec-1-en-4-one]
- cAMP production activity (%) [1]: 23%

SMILES: Cc1cc(N(C)C(N)=O)cc(C)c1/C=C/S(=O)(=O)N1CCC2(CC1)N=C(CCCCCCCCCCCC(=O)O)NC2=O [Compound 1131, 12-(8-{(E)-2-[2,6-Dimethyl-4-(1-methyl-ureido)-phenyl]-ethenesulfonyl}-4-oxo-1,3,8-triaza-spiro[4.5]dec-1-en-2-yl)-dodecanoic acid]
- cAMP production activity (%) [1]: 96%

SMILES: Cc1cc(C(=O)N2CCC(O)CC2)ccc1/C=C/S(=O)(=O)N1CCC2(CC1)N=C(c1cccc(OC(F)(F)F)c1)NC2=O [Compound 230, 8-{(E)-2-[4-(4-hydroxy-piperidine-1-carbonyl)-2-methyl-phenyl]-ethenesulfonyl}-2-(3-trifluoromethoxy-phenyl)-1,3,8-triaza-spiro[4.5]dec-1-en-4-one]
- cAMP production activity (%) [1]: 66%

SMILES: Cc1cc(N(C)C(=O)NCCN(C)C)ccc1/C=C/S(=O)(=O)N1CCC2(CC1)N=C(c1cccc(OC(F)(F)F)c1)NC2=O [Compound 457, 3-(2-Dimethylamino-ethyl)-1-methyl-1-(3-methyl-4-{(E)-2-[4-oxo-2-(3-trifluoromethoxy-phenyl)-1,3,8-triaza-spiro[4.5]dec-1-ene-8-sulfonyl]-vinyl}-phenyl)-urea]
- cAMP production activity (%) ([…], 0.1 µM): 25%

SMILES: O=C1NC(C2CCCCC2)=NC12CCN(S(=O)(=O)CCc1cccc3[nH]c(=O)oc13)CC2 [Compound 261, 2-Cyclohexyl-8-[2-(2-oxo-2,3-dihydro-benzoxazol-7-yl)-ethanesulfonyl]-1,3,8-triaza-spiro[4.5]dec-1-en-4-one]
- cAMP production activity (%) [1]: 70%

SMILES: Cc1cc(C(=O)N2CCC(C)(O)CC2)cc(C)c1/C=C/S(=O)(=O)N1CCC2(CC1)N=C(c1ccc(F)c(C)c1C)NC2=O [Compound 1192, 2-(4-fluoro-2,3-dimethyl-phenyl)-8-{(E)-2-[4-(4-hydroxy-4-methyl-piperidine-1-carbonyl)-2,6-dimethyl-phenyl]-ethenesulfonyl}-1,3,8-triaza-spiro[4.5]dec-1-en-4-one]
- cAMP production activity (%) [1]: 100%

SMILES: CCCCCCCCCC1=NC2(CCN(S(=O)(=O)CCc3c(C)cc(C(=O)N4CC(O)C4)cc3C)CC2)C(=O)N1 [Compound 985, 8-{2-[4-(3-hydroxy-azetidine-1-carbonyl)-2,6-dimethyl-phenyl]-ethanesulfonyl}-2-nonyl-1,3,8-triaza-spiro[4.5]dec-1-en-4-one]
- cAMP production activity (%) [1]: 120%

SMILES: Cc1cc(C(=O)N(C)C)ccc1-c1ccc(S(=O)(=O)N2CCC3(CC2)N=C(c2cccc(C(F)(F)F)c2)NC3=O)s1 [Compound 331, 3,N,N-trimethyl-4-{5-[4-oxo-2-(3-trifluoromethyl-phenyl)-1,3,8-triaza-spiro[4.5]dec-1-ene-8-sulfonyl]-thiophen-2-yl}-benzamide]
- cAMP production activity (%) [1]: 55%

SMILES: CCOCCCCCCC1=NC2(CCN([S@TB18](=O)(=O)/C=C/c3c(C)cc(N(C)C(N)=O)cc3C)CC2)C(=O)N1 [Compound 1115, 1-(4-{(E)-2-[2-(6-ethoxy-hexyl)-4-oxo-1,3,8-triaza-spiro[4.5]dec-1-ene-8-sulfonyl]-vinyl}-3,5-dimethyl-phenyl)-1-methyl-urea]
- cAMP production activity (%) [1]: 140%

SMILES: Cc1cc(N(C)c2c(N)c(=O)c2=O)cc(C)c1CCS(=O)(=O)N1CCC2(CC1)N=C([C@H]1CC[C@H](C)CC1)NC2=O [Compound 1368, 3-Amino-4-[(3,5-dimethyl-4-{2-[2-(4-methyl-cyclohexyl)-4-oxo-1,3,8-triaza-spiro[4.5]dec-1-ene-8-sulfonyl]-ethyl}-phenyl)-methyl-amino]-cyclobut-3-ene-1,2-dione]
- cAMP production activity (%) [1]: 83%

SMILES: CC(=O)N(CCO)c1cc(C)c(/C=C/S(=O)(=O)N2CCC3(CC2)N=C(c2cccc(OC(F)(F)F)c2)NC3=O)cc1F [Compound 717, N-(2-Fluoro-5-methyl-4-{(E)-2-[4-oxo-2-(3-trifluoromethoxy-phenyl)-1,3,8-triaza-spiro[4.5]dec-1-ene-8-sulfonyl]-vinyl}-phenyl)-N-(2-hydroxy-ethyl)-acetamide]
- cAMP production activity (%) [1]: 111%

SMILES: Cc1cc(N(C)C(N)=O)cc(C)c1/C=C/S(=O)(=O)N1CCC2(CC1)N=C(CCCCCCCS(C)(=O)=O)NC2=O [Compound 1319, 1-(4-{(E)-2-[2-(7-methanesulfonyl-heptyl)-4-oxo-1,3,8-triaza-spiro[4.5]dec-1-ene-8-sulfonyl]-vinyl}-3,5-dimethyl-phenyl)-1-methyl-urea]
- cAMP production activity (%) [1]: 5.8%

SMILES: Cc1cc(CNC(=O)OC(C)(C)C)ccc1CCS(=O)(=O)N1CCC2(CC1)N=C(C1CCC(F)(F)CC1)NC2=O [Compound 163, (4-{2-[2-(4,4-difluoro-cyclohexyl)-4-oxo-1,3,8-triaza-spiro[4.5]dec-1-ene-8-sulfonyl]-ethyl}-3-methyl-benzyl)-carbamic acid tert-butyl ester]
- cAMP production activity (%) [1]: 41%

SMILES: Cc1cc(N(C[C@H](O)CO)C(N)=O)cc(C)c1CCS(=O)(=O)N1CCC2(CC1)N=C(C1CCC(C)CC1)NC2=O (stereo partly drawn) [Compound 830, 1-((S)-2,3-dihydroxy-propyl)-1-(3,5-dimethyl-4-{2-[2-(4-methyl-cyclohexyl)-4-oxo-1,3,8-triaza-spiro[4.5]dec-1-ene-8-sulfonyl]-ethyl}-phenyl)-urea]
- cAMP production activity (%) [1]: 73%

SMILES: Cc1cc(C(=O)N2CCC(C)(O)CC2)cc(C)c1/C=C/S(=O)(=O)N1CCC2(CC1)N=C(c1ccc(C(F)F)c(F)c1)NC2=O [Compound 1219, 2-(4-difluoromethyl-3-fluoro-phenyl)-8-{(E)-2-[4-(4-hydroxy-4-methyl-piperidine-1-carbonyl)-2,6-dimethyl-phenyl]-ethenesulfonyl}-1,3,8-triaza-spiro[4.5]dec-1-en-4-one]
- cAMP production activity (%) [1]: 67%

SMILES: CCOc1cc(NC(C)=O)ccc1CCS(=O)(=O)N1CCC2(CC1)N=C(C1CCC(C)CC1)NC2=O (centres unmarked) [Compound 751, N-(3-ethoxy-4-{2-[2-(4-methyl-cyclohexyl)-4-oxo-1,3,8-triaza-spiro[4.5]dec-1-ene-8-sulfonyl]-ethyl}-phenyl)-acetamide]
- cAMP production activity (%) [1]: 83%

SMILES: COc1cccc(C2=NC3(CCN(S(=O)(=O)c4cccc(Cl)c4)CC3)C(=O)N2)c1 [Compound 5, 8-(3-chloro-benzenesulfonyl)-2-(3-methoxy-phenyl)-1,3,8-triaza-spiro[4.5]dec-1-en-4-one]
- cAMP production activity (%) [1]: 2.5%

SMILES: Cc1cc(C(=O)N2CCN(CCN3CCOCC3)CC2)ccc1CCS(=O)(=O)N1CCC2(CC1)N=C(c1cccc(C(F)(F)F)c1)NC2=O [Compound 363, 8-(2-{2-methyl-4-[4-(2-morpholin-4-yl-ethyl)-piperazine-1-carbonyl]-phenyl}-ethanesulfonyl)-2-(3-trifluoromethyl-phenyl)-1,3,8-triaza-spiro[4.5]dec-1-en-4-one]
- cAMP production activity (%) [1]: 67%

SMILES: O=C(Nc1ccc(/C=C/S(=O)(=O)N2CCC3(CC2)N=C(C2CCCCC2)NC3=O)c(C(F)(F)F)c1)C1CC1 [Compound 195, cyclopropanecarboxylic acid {4-[(E)-2-(2-cyclohexyl-4-oxo-1,3,8-triaza-spiro[4.5]dec-1-ene-8-sulfonyl)-vinyl]-3-trifluoromethyl-phenyl}-amide]
- cAMP production activity (%) [1]: 36%

SMILES: Cc1cc(C(=O)N(C)C)ccc1CCS(=O)(=O)N1CCC2(CC1)N=C(C#Cc1ccccc1)NC2=O [Compound 893, 3,N,N-trimethyl-4-[2-(4-oxo-2-phenylethynyl-1,3,8-triaza-spiro[4.5]dec-1-ene-8-sulfonyl)-ethyl]-benzamide]
- cAMP production activity (%) [1]: 14%

SMILES: Cc1cc(N(C)C(N)=O)cc(C)c1CCS(=O)(=O)N1CCC2(CC1)N=C(c1cccc(OC(F)(F)C(F)F)c1)NC2=O [Compound 1038, 1-[3,5-Dimethyl-4-(2-{4-oxo-2-[3-(1,1,2,2-tetrafluoro-ethoxy)-phenyl]-1,3,8-triaza-spiro[4.5]dec-1-ene-8-sulfonyl}-ethyl)-phenyl]-1-methyl-urea]
- cAMP production activity (%) [1]: 111%
